From patent US12617797B2, “Substituted pyrazolo [1,5-a]pyrimidines having multimodal activity against pain” (ESTEVE PHARMACEUTICALS, S.A., priority 2020, dated 2026) come the findings set out here.

Structures are written as SMILES.

One assay has as its target T1, Human σ1 receptor (Homo sapiens, UniProt Q99720).
T1 construct: expressed in transfected cells; host or cells: HEK-293
Briefly: Human σ1 receptor radioligand assay ([3H](+)-pentazocine binding, transfected HEK-293 membranes). Conditions: binding to σ1 receptor expressed as Ki; + also covers inhibition between 1% and 50%; read-out: σ-1 binding. The method in brief:
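Membranes (7 μg) were incubated with 5 nM [3H](+)-pentazocine in 50 mM Tris-HCl pH 8 for 120 min at 37° C. Non-specific binding was defined with 10 μM haloperidol. Values are % inhibition at 1 or 10 μM or Ki from five concentrations, read by filtration and scintillation counting.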

The target of assay [1] is Human α2δ-1 subunit of Cav2.2 calcium channel (Homo sapiens, UniProt P54289). As to the kind of experiment: Human α2δ-1 subunit of Cav2.2 calcium channel assay ([3H]-gabapentin binding). The following applies: binding to the α2δ-1 subunit of voltage-gated calcium channels expressed as Ki; + also covers inhibition between 1% and 50%. The method in brief:
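Membranes enriched in human α2δ-1 incubated with 15 nM [3H]-gabapentin in 10 mM Hepes-KOH pH 7.4, 60 min at 27 °C; nonspecific binding defined with 10 μM pregabalin. Filtration and scintillation counting; % inhibition at 1 or 10 μM, or Ki from five concentrations.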

T1 sequence (Q99720 whole entry): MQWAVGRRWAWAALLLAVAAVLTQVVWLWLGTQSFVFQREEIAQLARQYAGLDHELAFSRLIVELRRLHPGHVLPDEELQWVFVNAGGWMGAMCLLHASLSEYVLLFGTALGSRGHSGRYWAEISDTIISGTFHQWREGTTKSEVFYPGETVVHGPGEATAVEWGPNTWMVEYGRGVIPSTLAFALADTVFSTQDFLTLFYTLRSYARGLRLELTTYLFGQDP
Human α2δ-1 subunit of Cav2.2 calcium channel, sequence (P54289 25-1103): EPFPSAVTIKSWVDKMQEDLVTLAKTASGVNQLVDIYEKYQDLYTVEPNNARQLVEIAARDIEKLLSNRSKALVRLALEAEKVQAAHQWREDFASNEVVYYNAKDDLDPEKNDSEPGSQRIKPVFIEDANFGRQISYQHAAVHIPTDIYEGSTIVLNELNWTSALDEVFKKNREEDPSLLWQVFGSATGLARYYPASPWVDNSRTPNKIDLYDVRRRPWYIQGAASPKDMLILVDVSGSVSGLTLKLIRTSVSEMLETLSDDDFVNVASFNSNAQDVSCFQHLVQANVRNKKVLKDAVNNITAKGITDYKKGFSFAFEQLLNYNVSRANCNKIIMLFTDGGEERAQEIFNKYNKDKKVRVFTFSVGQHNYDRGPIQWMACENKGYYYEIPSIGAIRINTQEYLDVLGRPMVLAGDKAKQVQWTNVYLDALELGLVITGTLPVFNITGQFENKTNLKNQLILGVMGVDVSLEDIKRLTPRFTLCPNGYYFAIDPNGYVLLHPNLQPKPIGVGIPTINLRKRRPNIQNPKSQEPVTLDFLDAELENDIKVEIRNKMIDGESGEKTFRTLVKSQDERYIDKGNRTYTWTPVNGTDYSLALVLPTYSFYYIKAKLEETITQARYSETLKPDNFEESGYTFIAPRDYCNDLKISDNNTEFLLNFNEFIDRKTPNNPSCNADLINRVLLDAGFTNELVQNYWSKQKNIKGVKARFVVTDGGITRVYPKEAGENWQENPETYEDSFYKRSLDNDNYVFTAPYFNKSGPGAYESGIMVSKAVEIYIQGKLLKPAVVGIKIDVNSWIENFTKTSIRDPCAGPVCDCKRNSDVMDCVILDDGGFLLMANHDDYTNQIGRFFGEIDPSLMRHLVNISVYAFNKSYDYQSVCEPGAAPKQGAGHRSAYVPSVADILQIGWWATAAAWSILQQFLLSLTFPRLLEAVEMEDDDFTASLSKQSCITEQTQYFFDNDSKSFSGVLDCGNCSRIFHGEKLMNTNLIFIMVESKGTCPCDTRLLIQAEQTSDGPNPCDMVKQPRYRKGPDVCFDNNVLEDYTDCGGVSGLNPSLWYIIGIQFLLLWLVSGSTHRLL

As for `COc1ncccc1-c1cc2nccc(C3CCCN(Cc4ccccc4)C3)n2n1` (stereo not drawn) [Example 27, 7-(1-Benzylpiperidin-3-yl)-2-(2-methoxypyridin-3-yl)pyrazolo[1,5-a]pyrimidine], the Ki at Human σ1 receptor lay in the range of 500 to 1000 nM; in assay [1], 500 to 5000 nM.
Consider `Cc1nn2c(C3CCCN(Cc4ccccc4)C3)ccnc2c1-c1ccnc(F)c1` (stereo not drawn) [Example 50, 7-(1-Benzylpiperidin-3-yl)-3-(2-fluoropyridin-4-yl)-2-methylpyrazolo[1,5-a]pyrimidine], for which the Ki at Human σ1 receptor was more than 1000 nM; in assay [1] it was 500 to 5000 nM.
For `Cc1nn2c(C3CCCN(Cc4ccc(Cl)cc4)C3)ccnc2c1CN(C)Cc1c(F)cccc1F` (stereo not drawn) [Example 229, 1-(7-(1-(4-Chlorobenzyl)piperidin-3-yl)-2-methylpyrazolo[1,5-a]pyrimidin-3-yl)-N-(2,6-difluorobenzyl)-N-methylmethanamine], in that order: 500 to 1000 nM and 500 to 5000 nM.
The corresponding values for `CCN1CCCC(c2ccnc3c(-c4ccncc4)c(C)nn23)C1` (stereo not drawn) [Example 69, 7-(1-Ethylpiperidin-3-yl)-2-methyl-3-(pyridin-4-yl)pyrazolo[1,5-a]pyrimidine] are more than 1000 nM and more than 5000 nM.
With `Cc1nn2c([C@H]3CCCN([C@H](CO)c4ccccc4)C3)ccnc2c1-c1ccncc1` [Example 107, (S)-2-((S)-3-(2-methyl-3-(pyridin-4-yl)pyrazolo[1,5-a]pyrimidin-7-yl)piperidin-1-yl)-2-phenylethanol], the Ki on Human σ1 receptor is more than 1000 nM; in assay [1], more than 5000 nM.
For `Clc1ccc(CN2CCCC(c3ccnc4c(CNCC5CCOCC5)c(C5CC5)nn34)C2)cc1` (stereo not drawn) [Example 188, 1-(7-(1-(4-Chlorobenzyl)piperidin-3-yl)-2-cyclopropylpyrazolo[1,5-a]pyrimidin-3-yl)-N-((tetrahydro-2H-pyran-4-yl)methyl)methanamine], in that order: less than 500 nM and less than 500 nM.
`Cc1nn2c(C3CCCN(Cc4ccc(Cl)cc4)C3)ccnc2c1CNCC1CCN(C(N)=O)CC1` (stereo not drawn) [Example 218, 4-((((7-(1-(4-Chlorobenzyl)piperidin-3-yl)-2-methylpyrazolo[1,5-a]pyrimidin-3-yl)methyl)amino)methyl)piperidine-1-carboxamide]: the values for the Ki (at Human σ1 receptor; in assay [1]) were 500 to 1000 nM and 500 to 5000 nM, respectively.
Consider `CCc1nn2c(C3CCCN(Cc4ccccc4)C3)ccnc2c1-c1ccncc1` (stereo not drawn) [Example 60, 7-(1-Benzylpiperidin-3-yl)-2-ethyl-3-(pyridin-4-yl)pyrazolo[1,5-a]pyrimidine], for which the Ki is more than 1000 nM on Human σ1 receptor and 500 to 5000 nM in assay [1].
For `Cc1nn2c([C@@H]3CCCN(Cc4ccc(F)cc4)C3)ccnc2c1CNCC1CCOCC1` [Example 207, (R)-1-(7-(1-(4-fluorobenzyl)piperidin-3-yl)-2-methylpyrazolo[1,5-a]pyrimidin-3-yl)-N-((tetrahydro-2H-pyran-4-yl)methyl)methanamine], the Ki at Human σ1 receptor was less than 500 nM; in assay [1], more than 5000 nM.
The corresponding values for `Cc1ccc(CN2CCCC(c3ccnc4c(-c5ccncc5)c(C)nn34)C2)cc1` (stereo not drawn) [Example 76, 2-Methyl-7-(1-(4-methylbenzyl)piperidin-3-yl)-3-(pyridin-4-yl)pyrazolo[1,5-a]pyrimidine] are 500 to 1000 nM and 500 to 5000 nM.
Regarding `Cc1nn2c(C3CCCN(Cc4ccc(Cl)cc4)C3)ccnc2c1CNCc1ccncc1` (stereo not drawn) [Example 148, 1-(7-(1-(4-Chlorobenzyl)piperidin-3-yl)-2-methylpyrazolo[1,5-a]pyrimidin-3-yl)-N-(pyridin-4-ylmethyl)methanamine], the results for the Ki (on Human σ1 receptor; in assay [1]) were less than 500 nM and 500 to 5000 nM, respectively.
The corresponding values for `Cc1cccc(CN2CCCC(c3ccnc4c(-c5ccncc5)c(C)nn34)C2)c1` (stereo not drawn) [Example 77, 2-Methyl-7-(1-(3-methylbenzyl)piperidin-3-yl)-3-(pyridin-4-yl)pyrazolo[1,5-a]pyrimidine] are more than 1000 nM and more than 5000 nM.
The corresponding values for `Cc1nn2c([C@@H]3CCCN(Cc4ccc(Cl)cc4)C3)ccnc2c1CN[C@H](C)C1CCOCC1` (racemic) [Example 224, (+/−)-(R/S)—N-((7-((R/S)-1-(4-Chlorobenzyl)piperidin-3-yl)-2-methylpyrazolo[1,5-a]pyrimidin-3-yl)methyl)-1-(tetrahydro-2H-pyran-4-yl)ethan-1-amine] are less than 500 nM and 500 to 5000 nM.
For `CCCN1CCCC(c2ccnc3c(-c4ccncc4)c(C)nn23)C1` (stereo not drawn) [Example 70, 2-Methyl-7-(1-propylpiperidin-3-yl)-3-(pyridin-4-yl)pyrazolo[1,5-a]pyrimidine], in that order: more than 1000 nM and more than 5000 nM.
`Cc1nn2c([C@@H]3CCCN(Cc4ccc(Cl)cc4)C3)ccnc2c1CN[C@H](C)c1ccccc1` [Example 195, (R)—N-((7-((R)-1-(4-Chlorobenzyl)piperidin-3-yl)-2-methylpyrazolo[1,5-a]pyrimidin-3-yl)methyl)-1-phenylethan-1-amine]: the values for the Ki (at Human σ1 receptor; in assay [1]) were less than 500 nM and 500 to 5000 nM, respectively.
The corresponding values for `Cc1cnccc1-c1c(C)nn2c(C3CCCN(Cc4ccccc4)C3)ccnc12` (stereo not drawn) [Example 49, 7-(1-Benzylpiperidin-3-yl)-2-methyl-3-(3-methylpyridin-4-yl)pyrazolo[1,5-a]pyrimidine] are more than 1000 nM and more than 5000 nM.
For `c1ccc(CN2CCCC(c3ccnc4cc(-c5cncnc5)nn34)C2)cc1` (stereo not drawn) [Example 23, 7-(1-Benzylpiperidin-3-yl)-2-(pyrimidin-5-yl)pyrazolo[1,5-a]pyrimidine], in that order: more than 1000 nM and 500 to 5000 nM.
The corresponding values for `COc1ncccc1-c1cnn2c(C3CCCN(Cc4ccccc4)C3)ccnc12` (stereo not drawn) [Example 40, 7-(1-Benzylpiperidin-3-yl)-3-(2-methoxypyridin-3-yl)pyrazolo[1,5-a]pyrimidine] are more than 1000 nM and 500 to 5000 nM.
As to `Cc1nn2c(C3CCCN(Cc4ccc(Cl)cc4)C3)ccnc2c1-c1ccncc1` (stereo not drawn) [Example 121, 7-(1-(4-Chlorobenzyl)piperidin-3-yl)-2-methyl-3-(pyridin-4-yl)pyrazolo[1,5-a]pyrimidine], the Ki was in the range of 500 to 1000 nM at Human σ1 receptor and 500 to 5000 nM in assay [1].
For `CC(=O)N1CCC(CNCc2c(C)nn3c(C4CCCN(Cc5ccccc5)C4)ccnc23)CC1` (stereo not drawn) [Example 180, 1-(4-((((7-(1-Benzylpiperidin-3-yl)-2-methylpyrazolo[1,5-a]pyrimidin-3-yl)methyl)amino)methyl)piperidin-1-yl)ethan-1-one], in that order: less than 500 nM and 500 to 5000 nM.
The corresponding values for `Cc1cnc2c(-c3ccncc3)c(C)nn2c1C1CCCN(Cc2ccccc2)C1` (stereo not drawn) [Example 58, 7-(1-Benzylpiperidin-3-yl)-2,6-dimethyl-3-(pyridin-4-yl)pyrazolo[1,5-a]pyrimidine] are more than 1000 nM and 500 to 5000 nM.
The corresponding values for `Cc1nn2c(C3CCCN(Cc4ccc(Cl)cc4)C3)ccnc2c1-c1cncnc1` (stereo not drawn) [Example 130, 7-(1-(4-Chlorobenzyl)piperidin-3-yl)-2-methyl-3-(pyrimidin-5-yl)pyrazolo[1,5-a]pyrimidine] are more than 1000 nM and 500 to 5000 nM.
In the case of `CNCc1cc(-c2c(C)nn3c(C4CCCN(Cc5ccccc5)C4)ccnc23)ccn1` (stereo not drawn) [Example 62, 1-(4-(7-(1-Benzylpiperidin-3-yl)-2-methylpyrazolo[1,5-a]pyrimidin-3-yl)pyridin-2-yl)-N-methylmethanamine], the Ki at Human σ1 receptor was more than 1000 nM; in assay [1], 500 to 5000 nM.
Consider `Cc1nn2c([C@@H]3CCCN(Cc4ccc(Cl)cc4)C3)ccnc2c1CN[C@@H](C)C1CCOCC1` [Example 225, (S)—N-((7-((R)-1-(4-chlorobenzyl)piperidin-3-yl)-2-methylpyrazolo[1,5-a]pyrimidin-3-yl)methyl)-1-(tetrahydro-2H-pyran-4-yl)ethan-1-amine], for which the values for the Ki (on Human σ1 receptor; in assay [1]) were less than 500 nM and more than 5000 nM, respectively.
With `Cc1nn2c([C@@H]3CCCN(Cc4cccc(C#N)c4)C3)ccnc2c1CNCC1CCOCC1` [Example 209, (R)-3-((3-(2-methyl-3-((((tetrahydro-2H-pyran-4-yl)methyl)amino)methyl)pyrazolo[1,5-a]pyrimidin-7-yl)piperidin-1-yl)methyl)benzonitrile], the figures for the Ki (at Human σ1 receptor; in assay [1]) were less than 500 nM and more than 5000 nM, respectively.
For `Cc1nn2c(C3CCCN(Cc4ccccc4)C3)ccnc2c1N` (stereo not drawn) [Example 90, 7-(1-Benzylpiperidin-3-yl)-2-methylpyrazolo[1,5-a]pyrimidin-3-amine], in that order: more than 1000 nM and more than 5000 nM.
With `Cc1nn2c(C3CCCN(Cc4ccc(Cl)cc4)C3)ccnc2c1CN1CCNC(=O)C1` (stereo not drawn) [Example 173], the Ki at Human σ1 receptor is more than 1000 nM; in assay [1], more than 5000 nM.
`CN(CCN)c1cc2nccc(C3CCCN(Cc4ccccc4)C3)n2n1` (stereo not drawn) [Example 80, N^1-(7-(1-Benzylpiperidin-3-yl)pyrazolo[1,5-a]pyrimidin-2-yl)-N^1-methylethane-1,2-diamine]: the Ki on Human σ1 receptor was more than 1000 nM; in assay [1] it was 500 to 5000 nM.
The corresponding values for `N#Cc1cc2nccc(C3CCCN(Cc4ccccc4)C3)n2n1` (stereo not drawn) [Example 91, 7-(1-Benzylpiperidin-3-yl)pyrazolo[1,5-a]pyrimidine-2-carbonitrile] are more than 1000 nM and 500 to 5000 nM.
The corresponding values for `Cc1nn2c(C3CCCN(Cc4ccc(Cl)cc4)C3)ccnc2c1CNCc1ccccc1` (stereo not drawn) [Example 144, N-Benzyl-1-(7-(1-(4-chlorobenzyl)piperidin-3-yl)-2-methylpyrazolo[1,5-a]pyrimidin-3-yl)methanamine] are less than 500 nM and 500 to 5000 nM.
